Assay results: patent publication US11773063B1, “Pharmaceutically acceptable salts and compositions thereof” (priority 2022, dated 2023)
Where a name gives a salt, the structure may show the parent alone.

Assays:
[1] = Polymorphism screen of hydrochloride and benzoate salts: thermal cycling, evaporation, antisolvent addition, cooling (XRPD); type: physicochemical; settings: solvent per experiment: -01 1,4-Dioxane, -02 1-Propanol, -03 2-Butanol, -05 2-Methyltetrahydrofuran, -06 2-Propanol, -07 Acetone, -08 Acetonitrile, -09 Anisole, -10 Chlorobenzene, -11 Ethanol, -12 Ethyl acetate, -13 Isopropyl acetate, -14 Methanol, -15 Propyl acetate, -16 Methylethyl ketone; for 3-day Observations / XRPD Result: hydrochloride salt, three days; for 3-day Observations: thermally cycled between ambient and 40° C., -17 Forma; for 3-day Observations / Initial Observations: -04 2-Ethoxyethanol; for Initial Observations: thermal cycle of lyophilised hydrochloride salt (~40 mg), solvent added, -17 Formamide; for XRPD Result: solid isolated after thermal cycle between ambient and 40° C., -20 iso-Prop
Method: Twenty five of the lyophilised samples were treated with solvent and thermally cycled between ambient and 40° C. with four hours spent under each condition. After three days and solids were isolated by centrifuge filtration and analysed by XRPD.
Twelve samples of the lyophilised material were treated with a minimal volume (ca 0.5 ml) of warm solvent, syringe filtered through a 0.22 µm filter and added to a clean HPLC vial and allowed to evaporate at RT. The solvents used and XRPD results following evaporation are detailed in the Table below:
Twelve samples of the lyophilised material were treated with a minimal volume (ca 0.5 ml) of warm solvent, syringe filtered through a 0.22 micrometre filter and added to a clean HPLC vial and allowed to evaporate at RT. The solvents used and XRPD results following evaporation are detailed in the Table below:
For antisolvent additions thirteen samples of the lyophilised material were dissolved in a small amount of hot solvent (^˜0.5 ml). […] A large excess of antisolvent was then added, the vials sealed. After storage at RT overnight, and samples where no solid had been produced were first cooled to 4° C. for ˜24 hrs, and again if no solid was produced, they were cooled to −18° C. Any solids were isolated by centrifuge filtration and analysed by XRPD.
For the cooling experiments twelve samples of the lyophilised material were dissolved in a small amount of hot solvent (^˜[…]) and syringe filtered through a 0.22 μm filter into a clean HPLC vial. Samples were allowed to cool to RT, and if no solid was produced to 4° C. and then to −18° C. Solids were isolated by centrifuge filtration and analysed by XRPD.

[2] = Thermo-Gravimetric Analysis (TGA), thermal stability; settings: 10° C./min; for thermal stability up to (TGA): nitrogen
Method: Thermo—Gravimetric Analysis (TGA)
TGA thermograms were obtained with a TA Instrument Discovery 550 in Al pans. The heating rate used was 10° C./min linear ramp from 25 to 400° C. with a nitrogen purging at a rate of 60 ml/min. TGA thermograms were analysed using TRIOS software.

[3] = Dynamic Vapor Sorption (DVS), salt screen and scale-up salts; type: physicochemical; settings: 25° C.
Method: Dynamic Vapor Sorption (DVS)
DVS analyses were performed on TA Instrument DVS Q5000. Samples were added to a pre-tared metallised quartz crucible and run at 25° C. from 40% RH to 90% RH, down to zero and back to 40%. This cycle was repeated in increments of 10% RH.

[4] = listed as DJP2202-007-14, hydrochloride

| SMILES | 3-day Observations [1] | Initial Observations [1] | XRPD Result [1] | also measured |
| --- | --- | --- | --- | --- |
| COc1ccc2[nH]cc(CCN(C)C)c2c1.Cl [DJP2202-007-24] | clear solution | dissolved |  |  |
| COc1ccc2[nH]cc(CCN(C)C)c2c1.Cl [DJP2202-007-21] | few crystals | no change | Pattern 1 |  |
| COc1ccc2[nH]cc(CCN(C)C)c2c1.Cl [Hydrochloride pattern 3, 5-MeO-DMT hydrochloride] |  |  |  | XRPD Result [1, 4]: Pattern 3; 3-day Observations [1, 4]: clear solution; Initial Observations [1, 4]: dissolved; start of decomposition / complete mass loss (TGA) ([2]; hydrochloride): around 260 °C |
| COc1ccc2[nH]cc(CCN(C)C)c2c1.Cl [DJP2202-007-23] | clear solution | dissolved |  |  |
| COc1ccc2[nH]cc(CCN(C)C)c2c1.Cl [DJP2202-007-25] | clear solution | dissolved |  |  |
| COc1ccc2[nH]cc(CCN(C)C)c2c1.Cl [DJP2202-007-13] | white solid | no change | Pattern 1 |  |
| COc1ccc2[nH]cc(CCN(C)C)c2c1.Cl [DJP2202-007-17] | few crystals | dissolved |  |  |
| COc1ccc2[nH]cc(CCN(C)C)c2c1.Cl [DJP2202-007-20] | few crystals | no change | Pattern 1 |  |
| COc1ccc2[nH]cc(CCN(C)C)c2c1.Cl [DJP2202-007-06] | few crystals | no change | Pattern 1 |  |
| COc1ccc2[nH]cc(CCN(C)C)c2c1.Cl [DJP2202-007-22] | few crystals | no change | Pattern 1 |  |
| COc1ccc2[nH]cc(CCN(C)C)c2c1.Cl [DJP2202-007-08] |  | no change | Pattern 1 |  |
| COc1ccc2[nH]cc(CCN(C)C)c2c1.Cl [DJP2202-007-05] | few crystals | no change | Pattern 1 |  |
| COc1ccc2[nH]cc(CCN(C)C)c2c1.Cl [DJP2202-007-15] |  | no change | Pattern 1 |  |
| COc1ccc2[nH]cc(CCN(C)C)c2c1.Cl [DJP2202-007-16] | white crystals | no change | Pattern 2 |  |
| COc1ccc2[nH]cc(CCN(C)C)c2c1.Cl [DJP2202-007-04] | clear solution | dissolved |  |  |
| COc1ccc2[nH]cc(CCN(C)C)c2c1 [Ketoglutarate salt, 5-MeO-DMT ketoglutarate] |  |  |  | water uptake at 40% RH ([3]; first sorption isotherm): 0.13 % w/w; deliquescence during DVS ([3]; high RH): deliquesce at high RH |
| COc1ccc2[nH]cc(CCN(C)C)c2c1.Cl [DJP2202-007-11] | white solid | no change | Pattern 1 |  |
| COc1ccc2[nH]cc(CCN(C)C)c2c1.Cl [DJP2202-007-10] | white solid | no change | Pattern 1 |  |
| COc1ccc2[nH]cc(CCN(C)C)c2c1.Cl [DJP2202-007-18] | clear solution | dissolved |  |  |
| COc1ccc2[nH]cc(CCN(C)C)c2c1.Cl [DJP2202-007-09] |  | no change | Pattern 1 |  |
| COc1ccc2[nH]cc(CCN(C)C)c2c1 [Saccharinate salt, 5-MeO-DMT saccharinate] |  |  |  | thermal stability up to (TGA) [2]: 200 °C |
| COc1ccc2[nH]cc(CCN(C)C)c2c1.Cl [DJP2202-007-03] | few crystals | no change | Pattern 1 |  |
| COc1ccc2[nH]cc(CCN(C)C)c2c1 [free base, 5-methoxy-N,N-dimethyltryptamine] |  |  |  | thermal stability up to (TGA) [2]: 150 °C |
| COc1ccc2[nH]cc(CCN(C)C)c2c1.O=C(O)c1ccccc1 [benzoate salt pattern 3, 5-MeO-DMT benzoate] |  |  |  | start of decomposition / complete mass loss (TGA) [2]: approximately 190 °C |
| COc1ccc2[nH]cc(CCN(C)C)c2c1.Cl [DJP2202-007-12] | white solid | no change | Pattern 1 |  |
| COc1ccc2[nH]cc(CCN(C)C)c2c1.O=C(O)c1ccccc1 [benzoate salt pattern 4, 5-MeO-DMT benzoate] |  |  |  | start of decomposition / complete mass loss (TGA) [2]: approximately 190 °C; thermal stability up to (TGA) [2]: approximately 190 °C |
| COc1ccc2[nH]cc(CCN(C)C)c2c1.O=C(O)c1ccccc1 [benzoate salt pattern 2, 5-MeO-DMT benzoate] |  |  |  | thermal stability up to (TGA) [2]: ~170 °C |
| COc1ccc2[nH]cc(CCN(C)C)c2c1.Cl [DJP2202-007-02] | few crystals | no change | Pattern 1 |  |
| COc1ccc2[nH]cc(CCN(C)C)c2c1.Cl [DJP2202-007-19] | clear solution | no change |  |  |
| COc1ccc2[nH]cc(CCN(C)C)c2c1.Cl [DJP2202-007-07] | few crystals | no change | Pattern 1 |  |
